Experimental data as given in ChEMBL document CHEMBL1135261, “Antitumor agents. Part 3: synthesis and cytotoxicity of new trans-stilbene benzenesulfonamide derivatives” (2002).

Tests used:
Conditions in all cases: Homo sapiens
NCI-H23 = test: Tested for the cytotoxicity against the Non-small cell lung cancer cell line NCI-H23, growth inhibition by 50% is reported
HL-60 = test: Tested for the cytotoxicity against the Leukemia cell line HL60, growth inhibition by 50% is reported; format: functional
HCT-15 = test: Tested for the cytotoxicity against the colon cancer cell line HCT15, growth inhibition by 50% is reported; format: functional
HOP-92 = test: Tested for the cytotoxicity against the Non-small cell lung cancer cell line HOP-92, growth inhibition by 50% is reported; format: functional
LOX IMVI = test: Tested for the cytotoxicity against the Melanoma cell line LOXIMVI, growth inhibition by 50% is reported; format: functional
NCI-H226 = test: Tested for the cytotoxicity against the Non-small cell lung cancer cell line NCI-H226, growth inhibition by 50% is reported; format: functional
U-251 = test: Tested for the cytotoxicity against the CNS cancer cell line U251,growth inhibition by 50% is reported; format: functional
SF-268 = test: Tested for the cytotoxicity against the CNS cancer cell line SF-268, growth inhibition by 50% is reported; format: functional
MDA-MB-435 = test: Tested for the cytotoxicity against the Breast cancer cell line MDAMB435, growth inhibition by 50% is reported; format: functional
ACHN = test: Tested for the cytotoxicity against the Renal cancer cell line ACHN, growth inhibition by 50% is reported; format: functional
CCRF-CEM = test: Tested for the cytotoxicity against the Leukemia cell line CCRF-CEM, growth inhibition by 50% is reported; format: functional
RPMI-8226 = test: Tested for the cytotoxicity against the Leukemia cell line RPMI8226, growth inhibition by 50% is reported; format: functional
CAKI-1 = test: Tested for the cytotoxicity against the Renal cancer cell line CAKI-1, growth inhibition by 50% is reported; format: functional
KM12 = test: Tested for the cytotoxicity against the colon cancer cell line KM-12, growth inhibition by 50% is reported; format: functional
K562 = test: Tested for the cytotoxicity against the Leukemia cell line K-562, growth inhibition by 50% is reported; format: functional
SR = test: Tested for the cytotoxicity against the Leukemia cell line SR, growth inhibition by 50% is reported; format: functional
NCI-H522 = test: Tested for the cytotoxicity against the Non-small cell lung cancer cell line NCI-H522 growth inhibition by 50% is reported; format: functional
BT-549 = test: Tested for the cytotoxicity against the Breast cancer cell line BT-549, growth inhibition by 50% is reported; format: functional
SF-539 = test: Tested for the cytotoxicity against the CNS cancer cell line SF-539, growth inhibition by 50% is reported; format: functional
Hs-578T = test: Tested for the cytotoxicity against the Breast cancer cell line HS-578T, growth inhibition by 50% is reported; format: functional
IGROV-1 = test: Tested for the cytotoxicity against the Ovarian cancer cell line IGROV1, growth inhibition by 50% is reported; format: functional
HT-29 = test: Tested for the cytotoxicity against the colon cancer cell line HT29, growth inhibition by 50% is reported; format: functional
OVCAR-8 = test: Tested for the cytotoxicity against the Ovarian cancer cell line OVCAR-8, growth inhibition by 50% is reported; format: functional
MOLT-4 = test: Tested for the cytotoxicity against the Leukemia cell line MOLT-4, growth inhibition by 50% is reported; format: functional
OVCAR-4 = test: Tested for the cytotoxicity against the Ovarian cancer cell line OVCAR-4, growth inhibition by 50% is reported; format: functional
A549 = test: Tested for the cytotoxicity against the Non-small cell lung cancer cell line A-549, growth inhibition by 50% is reported; format: functional
UACC-62 = test: Tested for the cytotoxicity against the Melanoma cell line UACC-62, growth inhibition by 50% is reported; format: functional

| SMILES | GI50 (NCI-H23) | GI50 (HL-60) | GI50 (HCT-15) | GI50 (HOP-92) | GI50 (LOX IMVI) | GI50 (NCI-H226) | GI50 (U-251) | GI50 (SF-268) | GI50 (MDA-MB-435) | GI50 (ACHN) | GI50 (CCRF-CEM) | GI50 (RPMI-8226) | GI50 (CAKI-1) | GI50 (KM12) | GI50 (K562) | GI50 (SR) | GI50 (SF-539) | GI50 (Hs-578T) | GI50 (IGROV-1) | GI50 (HT-29) | other results |
| --- | --- | --- | --- | --- | --- | --- | --- | --- | --- | --- | --- | --- | --- | --- | --- | --- | --- | --- | --- | --- | --- |
| CN(C)c1ccc(/C=C/c2ccc(S(N)(=O)=O)cc2)cc1 | 14.2 µM | > 100 µM | 17.1 µM | 16.6 µM | 18.7 µM | 12.1 µM | 11.2 µM | 7.16 µM | 7.63 µM | 13.6 µM | 46 µM | 11.6 µM | 50.3 µM | 8.28 µM | > 100 µM | 8.58 µM | 11.7 µM | 3.03 µM | 13.4 µM | 30.8 µM | GI50 (NCI-H522): 6.88 µM; GI50 (BT-549): 2.14 µM; GI50 (OVCAR-8): 4.95 µM; GI50 (MOLT-4): > 100 µM; GI50 (OVCAR-4): 3.34 µM; GI50 (A549): 10.1 µM |
| COc1cc(/C=C/c2ccc(S(N)(=O)=O)cc2)cc(OC)c1 | 22.5 µM | 18.6 µM | 17.4 µM | 15 µM | 18.2 µM | 12.3 µM | 17.1 µM | 28.3 µM | 18.7 µM | 23.5 µM | 19.9 µM | 14.3 µM | 19 µM | 20.8 µM | 28.7 µM | 19.7 µM | 18.8 µM | 20.1 µM | 23.1 µM | 16.2 µM | GI50 (UACC-62): 15.4 µM; GI50 (BT-549): 10.7 µM; GI50 (OVCAR-8): 37.9 µM; GI50 (MOLT-4): 18.6 µM; GI50 (OVCAR-4): 21.2 µM; GI50 (A549): 20.7 µM |
| NS(=O)(=O)c1ccc(/C=C/c2ccc(F)cc2)cc1 | 45.1 µM | 37.3 µM | 9.98 µM | 33.2 µM | 26.7 µM | 7.97 µM | 7.93 µM | 20.5 µM | 27 µM | 2.97 µM | 62 µM | 42.3 µM | 36.3 µM | 16.3 µM | 14.9 µM | 10.5 µM | 29.1 µM | 23.7 µM | 20.9 µM | 29.4 µM | GI50 (NCI-H522): 4.81 µM; GI50 (BT-549): 0.205 µM; GI50 (OVCAR-8): 15.2 µM; GI50 (MOLT-4): 12.9 µM; GI50 (OVCAR-4): 34.4 µM; GI50 (A549): 8.93 µM |
| NS(=O)(=O)c1ccc(/C=C/c2cccc(O)c2)cc1 | 46.1 µM | 41.4 µM | 22.8 µM | 17.4 µM | 43 µM | 25.8 µM | 21.1 µM | 65.6 µM | 25.8 µM | 25.8 µM | 16.1 µM | 18.9 µM | 50.2 µM | 35.4 µM | 43.4 µM | 17.8 µM | 36.7 µM | 61 µM | 30.2 µM | 43.3 µM | GI50 (UACC-62): 18.6 µM; GI50 (NCI-H522): 12.2 µM; GI50 (OVCAR-8): 25.2 µM; GI50 (MOLT-4): 20 µM; GI50 (OVCAR-4): 27.8 µM; GI50 (A549): 19.8 µM |
| NS(=O)(=O)c1ccc(/C=C/c2ccc(O)cc2)cc1 | 16.9 µM | 4.35 µM | 24.6 µM | 31.5 µM | 19.1 µM | 11.1 µM | 15 µM | 31.5 µM | 20.3 µM | 2.28 µM | 4.5 µM | 7.09 µM | 5.59 µM | 11.1 µM | 24.9 µM | 4.68 µM | 7.4 µM | 28.9 µM | 20.3 µM | 17.8 µM | GI50 (UACC-62): 3.4 µM; GI50 (NCI-H522): 13.8 µM; GI50 (OVCAR-8): 4.81 µM; GI50 (MOLT-4): 22.6 µM; GI50 (OVCAR-4): 36.9 µM; GI50 (A549): 13.9 µM |
| COc1cccc(/C=C/c2ccc(S(N)(=O)=O)cc2)c1 | 21 µM | 10.4 µM | 3.6 µM | 3.29 µM | 30.7 µM | 2.91 µM | 5.54 µM | 17.1 µM | 17.4 µM | 7.12 µM | 13.6 µM | 3.81 µM | 14.7 µM | 12.2 µM | 20.6 µM | 5.21 µM | 16.8 µM | 25.5 µM | 2.5 µM | 0.554 µM | GI50 (UACC-62): 14 µM; GI50 (BT-549): 6.38 µM; GI50 (OVCAR-8): 31.6 µM; GI50 (MOLT-4): 26.8 µM; GI50 (OVCAR-4): 25 µM; GI50 (A549): 11 µM |
| NS(=O)(=O)c1ccc(/C=C/c2ccc(O)c(O)c2)cc1 | 25.9 µM | 16.3 µM | 13.9 µM | 15.8 µM | 29.9 µM | 14 µM | 16.3 µM | 18.2 µM | 16.8 µM | 20.4 µM | 4.79 µM | 9.16 µM | 29.1 µM | 18.2 µM | 35.3 µM | 12.7 µM | 14.2 µM | 25.6 µM | 4.49 µM | 35.4 µM | GI50 (UACC-62): 23.3 µM; GI50 (NCI-H522): 2.25 µM; GI50 (BT-549): 4.13 µM; GI50 (OVCAR-8): 16.7 µM; GI50 (MOLT-4): 12.8 µM; GI50 (OVCAR-4): 11.6 µM; GI50 (A549): 22.3 µM |
